The structures appear in SMILES notation.

Assay [1] concerns the target T1, Estrogen receptor (Rattus norvegicus) (UniProt P06211+Q62986).
Description: Anti-uterotrophic effect in rats at 50 ug/animal/day in the presence of 0.5 ug estradiol benzoate
Assay [2] concerns the target T1, Estrogen receptor (Rattus norvegicus). To be noted: Uterus.
Description: Uterotrophic effect in rats at 50 ug/animal/day hydroxytamoxifen

For the molecule `CC/C(=C(\c1ccccc1)c1ccc(OCCN(C)C)cc1)c1cccc(O)c1`, in assay [1], the Antiuterotropic effect worked out at 15.7. This molecule had a Uterotropic effect in assay [2] of 10.1.

`C[C@]12CC[C@@H]3c4ccc(OC(=O)c5ccccc5)cc4CC[C@H]3[C@@H]1CC[C@@H]2O`: in assay [1], the Antiuterotropic effect stood at 21.6. The same molecule came in with a Uterotropic effect in assay [2] of 24.

Regarding `CC/C(=C(/c1ccc(OCCN(C)C)cc1)c1cccc(O)c1)c1ccccc1`, the Antiuterotropic effect in assay [1] turned out to be 16.7. Besides, the Uterotropic effect in assay [2] worked out at 6.7.

Turning to `CC/C(=C(/c1ccccc1)c1ccc(OCCN(C)C)cc1)c1cccc(O)c1`, the Antiuterotropic effect in assay [1] came out at 19.7. This molecule also returned a Uterotropic effect in assay [2] of 5.7.

Consider `CC/C(=C(/c1ccccc1)c1ccc(OCCN(C)C)cc1)c1ccc(O)cc1`, for which, in assay [1], the Antiuterotropic effect is 15.7. Moreover, the Uterotropic effect in assay [2] amounted to 11.

The record behind these values is ChEMBL document CHEMBL1122129, “Estrogenic and antiestrogenic activity of monophenolic analogues of tamoxifen, (Z)-2-[p-(1,2-diphenyl-1-butenyl)phenoxy]-N, N-dimethylethylamine” (J Med Chem, 1982).
